From ChEMBL document CHEMBL1129995, “N-[2-[(substituted chroman-8-yl)oxy]ethyl]-4-(4-methoxyphenyl)butylamines: synthesis and wide range of antagonism at the human 5-HT1A receptor” (J Med Chem, 1997)
Where “and” joins values, the source holds several entries; their conditions need not be identical. Identical values can stand only once.

Columns and labels:
[1] = target: T1, 5-hydroxytryptamine receptor 1A (Rattus norvegicus, UniProt P19327); test: Displacement of [3H]8-OH-DPAT from rat hippocampal 5-hydroxytryptamine 1A receptor; format: tissue-based, Hippocampus
T1 sequence (P19327 whole entry): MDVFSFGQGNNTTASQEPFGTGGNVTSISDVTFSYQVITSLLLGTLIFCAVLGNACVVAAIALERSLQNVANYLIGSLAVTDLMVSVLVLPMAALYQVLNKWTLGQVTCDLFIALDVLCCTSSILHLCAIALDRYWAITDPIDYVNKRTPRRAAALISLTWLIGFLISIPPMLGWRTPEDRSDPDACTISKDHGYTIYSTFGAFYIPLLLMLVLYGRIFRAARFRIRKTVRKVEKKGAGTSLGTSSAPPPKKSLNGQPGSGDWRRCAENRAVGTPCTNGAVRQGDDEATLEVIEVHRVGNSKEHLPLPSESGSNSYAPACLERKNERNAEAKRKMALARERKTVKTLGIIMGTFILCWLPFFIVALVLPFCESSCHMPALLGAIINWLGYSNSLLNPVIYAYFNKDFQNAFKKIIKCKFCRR

[2] = target: T2, Adrenergic receptor alpha-1 (Rattus norvegicus, UniProt P15823+P23944+P43140); test: In vitro radioligand binding assay on adrenaline Alpha-1 adrenergic receptor of rat cortex using [3H]- prazosin; format: tissue-based
T2 sequence (P15823 whole entry): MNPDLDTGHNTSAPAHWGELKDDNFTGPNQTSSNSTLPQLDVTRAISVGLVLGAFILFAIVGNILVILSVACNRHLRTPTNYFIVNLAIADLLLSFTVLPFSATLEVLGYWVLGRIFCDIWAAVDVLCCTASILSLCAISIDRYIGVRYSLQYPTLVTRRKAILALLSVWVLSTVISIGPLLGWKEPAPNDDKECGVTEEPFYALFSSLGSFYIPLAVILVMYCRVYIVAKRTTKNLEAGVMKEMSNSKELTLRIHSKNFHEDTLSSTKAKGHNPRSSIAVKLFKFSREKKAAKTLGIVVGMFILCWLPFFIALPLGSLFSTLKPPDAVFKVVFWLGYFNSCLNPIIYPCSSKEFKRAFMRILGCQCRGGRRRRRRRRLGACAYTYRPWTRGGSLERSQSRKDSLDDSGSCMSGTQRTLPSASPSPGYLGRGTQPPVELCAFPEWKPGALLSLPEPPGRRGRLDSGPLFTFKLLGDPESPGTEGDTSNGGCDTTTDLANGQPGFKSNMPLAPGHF
T2 sequence (P23944 whole entry): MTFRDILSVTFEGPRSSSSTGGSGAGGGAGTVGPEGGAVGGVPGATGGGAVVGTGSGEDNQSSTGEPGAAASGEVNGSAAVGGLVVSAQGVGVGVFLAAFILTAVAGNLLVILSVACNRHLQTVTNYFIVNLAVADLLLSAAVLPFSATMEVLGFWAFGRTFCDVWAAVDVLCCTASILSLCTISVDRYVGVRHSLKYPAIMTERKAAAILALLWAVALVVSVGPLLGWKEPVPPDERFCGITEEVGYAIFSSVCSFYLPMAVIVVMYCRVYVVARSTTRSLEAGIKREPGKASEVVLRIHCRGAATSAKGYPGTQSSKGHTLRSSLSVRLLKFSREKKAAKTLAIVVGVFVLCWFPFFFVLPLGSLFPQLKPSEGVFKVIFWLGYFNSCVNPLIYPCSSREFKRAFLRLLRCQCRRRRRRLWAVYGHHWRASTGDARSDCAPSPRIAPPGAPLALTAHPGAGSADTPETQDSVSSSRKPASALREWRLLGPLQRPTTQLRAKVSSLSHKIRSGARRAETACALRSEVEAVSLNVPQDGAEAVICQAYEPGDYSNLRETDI
T2 sequence (P43140 whole entry): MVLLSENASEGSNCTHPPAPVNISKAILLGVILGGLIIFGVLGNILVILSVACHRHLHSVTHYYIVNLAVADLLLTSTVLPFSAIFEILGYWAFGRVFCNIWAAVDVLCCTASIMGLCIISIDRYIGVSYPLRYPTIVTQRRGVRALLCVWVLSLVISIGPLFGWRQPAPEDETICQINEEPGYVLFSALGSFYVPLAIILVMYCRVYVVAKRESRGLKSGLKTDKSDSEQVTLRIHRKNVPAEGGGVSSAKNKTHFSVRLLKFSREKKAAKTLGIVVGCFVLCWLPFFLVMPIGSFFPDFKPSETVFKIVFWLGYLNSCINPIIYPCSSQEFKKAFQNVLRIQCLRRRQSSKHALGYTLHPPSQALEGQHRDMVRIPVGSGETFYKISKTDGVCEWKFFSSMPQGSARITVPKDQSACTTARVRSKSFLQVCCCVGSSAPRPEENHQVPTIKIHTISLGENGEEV

[3] = target: D(2) dopamine receptor (Rattus norvegicus, UniProt P61169); test: In vitro radioligand binding assay on Dopamine receptor D2 of rat striatum using [3H]- spiperone; format: tissue-based
[4] = target: T1, 5-hydroxytryptamine receptor 1A; test: In vitro radioligand binding assay on 5-hydroxytryptamine 1A receptor using [3H]8-OH-DPAT in rat hippocampus; format: tissue-based

Sequence of D(2) dopamine receptor (P61169 whole entry): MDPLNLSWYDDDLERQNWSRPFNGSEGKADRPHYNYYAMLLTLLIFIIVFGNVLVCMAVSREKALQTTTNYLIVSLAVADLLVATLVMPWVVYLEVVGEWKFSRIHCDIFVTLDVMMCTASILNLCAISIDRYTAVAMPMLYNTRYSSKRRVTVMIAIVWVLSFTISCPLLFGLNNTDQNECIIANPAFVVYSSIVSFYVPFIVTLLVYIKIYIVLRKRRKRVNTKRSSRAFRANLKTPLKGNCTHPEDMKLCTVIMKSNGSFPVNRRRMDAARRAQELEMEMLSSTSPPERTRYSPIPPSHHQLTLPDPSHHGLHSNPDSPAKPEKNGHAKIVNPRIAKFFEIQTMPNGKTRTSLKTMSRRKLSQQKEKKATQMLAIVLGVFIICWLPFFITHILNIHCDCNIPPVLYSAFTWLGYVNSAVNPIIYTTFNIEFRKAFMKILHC

SMILES | Ki [1] | Ki [2] [nM] | Ki [3] | IC50 [2] [nM] | IC50 [4] [nM]
COc1ccc(CCCCNCCOc2cc(C)cc3c2OCCC3)cc1 | 0.779 nM | 35.1 | 1.79 nM | – | –
COc1ccc(CCCCNCCOc2c(F)ccc3c2OCCC3)cc1 | 0.35 nM | 71.5 | 21.3 nM | – | –
COc1ccc(CCCCNCCOc2cc(Cl)cc3c2OCCC3)cc1 | 1.29 nM | 14.3 | 0.489 nM | – | –
CCCN(CCC)[C@H]1CCc2c(F)ccc(O)c2C1 | 46 nM | 6080 | 614 nM and 400 nM | – | –
COc1ccc(CCCCNCCOc2cc(O)cc3c2OCCC3)cc1 | 0.271 nM | 98.4 | 1.76 nM | – | –
COc1ccc(CCCCNCCOc2cc(F)cc3c2OCCC3)cc1 | 0.221 nM | 2.71 | 0.259 nM | – | –
COc1ccc(CCCCNCCOc2cccc3c2OCCC3)cc1 | 0.118 nM | 5.19 | 0.581 nM | – | –
COc1ccc(CCCCNCCOc2cc(OC)cc3c2OCCC3)cc1 | 3.07 nM | 27.9 | 1.75 nM | – | –
COc1ccc(CCCCNCCOc2ccc(F)c3c2OCCC3)cc1 | 0.051 nM | 8.77 | 3.53 nM | – | –
O=C1C2C(C(=O)N1CCCCN1CCN(c3ncccn3)CC1)[C@H]1CC[C@@H]2C1 (some centres undefined) | 21.5 nM and 25 nM | 1260 | – | – | –
COc1ccccc1N1CCN(C[C@@H](C(=O)NC(C)(C)C)c2ccccc2)CC1 | 27.9 nM | 897 | 176 nM | 1490 | 33.9
